Measurements reported in patent US20060069132A1, “Azolecarboxamide herbicides” (priority 2004, published 2006).

Experiments:
[1] = tested on: corn; assay: Test B pre-/postemergence herbicide test; assay type: in vivo, Zea mays; settings: for Corn plant response rating: postemergence
Procedure, shortened: (§1)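 Visual rating, 0 (no effect) to 100 (complete control), versus untreated controls after 13–15 d in greenhouse. Pre- and postemergence applications (postemergence plants 2–18 cm, 1–4 leaves); flooded paddy arm at 2-leaf stage. Compounds in non-phytotoxic solvent plus surfactant.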

[2] = tested on: giant foxtail; assay: Test B pre-/postemergence herbicide test; assay type: in vivo, Setaria faberi; settings: for Foxtail, Giant plant response rating: postemergence
Procedure, shortened: as §1

[3] = tested on: smallflower umbrella sedge; assay: Test C flooded paddy test; assay type: in vivo, Cyperus difformis
Procedure: (§2) At the same time, plants selected from these crop and weed species and also winter barley (Hordeum vulgare L.), blackgrass (Alopecurus myosuroides Huds.), canarygrass (Phalaris minor Retz.), chickweed (Stellaria media (L.) Vill.), downy bromegrass (Bromus tectorum L.), green foxtail (Setaria viridis (L.) Beauv.), Italian ryegrass (Lolium multiflorum Lam.), wheat (Triticum aestivum L.), wild oat (Avenafatua L.) and windgrass (Apera spica-venti (L.) Beauv.) were treated with postemergence applications of some of the test chemicals formulated in the same manner. Plants ranged in height from 2 to 18 cm (1- to 4-leaf stage) for postemergence treatments. Plant species in the flooded paddy test consisted of rice (Oryza sativa), smallflower umbrella sedge (Cyperus difformis L.), ducksalad (Heteranthera limosa (Sw.) Willd.) and barnyardgrass (Echinochloa crus-galli (L.) Beauv.) grown to the 2-leaf stage for testing. Treated plants and controls were maintained in a greenhouse for 12 to 14 days, after which time all species were compared to controls and visually evaluated. Plant response ratings, summarized in Table C, are based on a scale of 0 to 100 where 0 is no effect and 100 is complete control. A dash (-) response means no test result.

[4] = tested on: velvetleaf; assay: Test B pre-/postemergence herbicide test; assay type: in vivo, Abutilon theophrasti; settings: for Velvetleaf plant response rating: postemergence
Procedure, shortened: as §1

[5] = tested on: large crabgrass; assay: Test B pre-/postemergence herbicide test; assay type: in vivo, Digitaria sanguinalis; settings: for Crabgrass, Large plant response rating: postemergence
Procedure, shortened: as §1

[6] = tested on: rice; assay: Test C flooded paddy test; assay type: in vivo, Oryza sativa
Procedure: as §2

[7] = tested on: pigweed; assay: Test B pre-/postemergence herbicide test; assay type: in vivo, Amaranthus retroflexus; settings: for Pigweed plant response rating: postemergence
Procedure, shortened: as §1

[8] = tested on: lambsquarters; assay: Test B pre-/postemergence herbicide test; assay type: in vivo, Chenopodium album; settings: for Lambsquarters plant response rating: postemergence
Procedure, shortened: as §1

[9] = tested on: rice; assay: Test B flooded paddy test; assay type: in vivo, Oryza sativa; settings: 1000 g ai/ha, scale 0 to 100 (0 no effect, 100 complete control)
Procedure, shortened: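 Read-out: visual comparison with controls, scored 0 to 100, where 100 means complete control and 0 no effect. Formulated chemicals were applied postemergence to plants 2–18 cm tall (1- to 4-leaf), or to flooded-paddy plants at the 2-leaf stage, then held 13 to 15 days under glass.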

[10] = tested on: wheat; assay: Test B postemergence herbicide test; assay type: in vivo, Triticum aestivum; set-up: key to Wheat plant response rating: 0 = no effect, 100 = complete control; settings: postemergence
Procedure, shortened: (§3)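 Formulated test chemicals went onto postemergence plants measuring 2 to 18 cm, at one to four leaves. For the paddy assay, species had reached two leaves. Scoring took place 13–15 days later by eye, relative to untreated plants, using 0 for no effect up to 100 for full control.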

[11] = tested on: morningglory; assay: Test B pre-/postemergence herbicide test; assay type: in vivo, Ipomoea coccinea; settings: for Morningglory plant response rating: postemergence
Procedure, shortened: (§4)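 Flooded paddy rice and barnyardgrass were treated at the 2-leaf stage; upland plantings received compound either on sown seed or on 1- to 4-leaf seedlings. All were kept 13–15 days in a greenhouse and scored visually, 0–100, relative to untreated plants.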

[12] = tested on: ducksalad; assay: Test C flooded paddy test; assay type: in vivo, Heteranthera limosa
Procedure: as §2

[13] = tested on: cocklebur; assay: Test B pre-/postemergence herbicide test; assay type: in vivo, Xanthium strumarium; settings: for Cocklebur plant response rating: postemergence
Procedure, shortened: as §4

[14] = tested on: wild oat; assay: Test B postemergence herbicide test; assay type: in vivo, Avena fatua; settings: postemergence
Procedure, shortened: as §3

[15] = tested on: Surinam grass; assay: Test B pre-/postemergence herbicide test; assay type: in vivo, Urochloa decumbens; settings: for Surinam Grass plant response rating: postemergence
Procedure, shortened: as §1

[16] = tested on: barnyardgrass; assay: Test B pre-/postemergence herbicide test; assay type: in vivo, Echinochloa crus-galli; settings: for Barnyardgrass plant response rating: postemergence
Procedure, shortened: as §4

[17] = tested on: barnyardgrass; assay: Test C flooded paddy test; assay type: in vivo, Echinochloa crus-galli
Procedure: as §2

[18] = tested on: blackgrass; assay: Test B postemergence herbicide test; assay type: in vivo, Alopecurus myosuroides; settings: postemergence
Procedure, shortened: (§5)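 After treating 2-leaf paddy plants or 2–18 cm postemergence plants (1 to 4 leaves) with formulated chemical, researchers kept them in a greenhouse for 13–15 days. Effects were judged visually versus controls: 0 indicates none, 100 total control.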

[19] = tested on: small flower umbrella sedge; assay: Test B flooded paddy test; assay type: in vivo, Cyperus difformis; settings: 1000 g ai/ha, scale 0 to 100 (0 no effect, 100 complete control)
Procedure, shortened: as §5

[20] = tested on: ducksalad; assay: Test B flooded paddy test; assay type: in vivo, Heteranthera limosa; settings: 1000 g ai/ha, scale 0 to 100 (0 no effect, 100 complete control)
Procedure, shortened: as §5

[21] = tested on: barnyardgrass; assay: Test B flooded paddy test; assay type: in vivo, Echinochloa crus-galli; settings: 1000 g ai/ha, scale 0 to 100 (0 no effect, 100 complete control)
Procedure, shortened: as §5

[22] = 125 g ai/ha, 0 is no effect, 100 is complete control, preemergence
[23] = 125 g ai/ha, visual rating, scale 0 (no effect) to 100 (complete control)
[24] = 500 g ai/ha, visual rating, 0 = no effect, 100 = complete control, preemergence
[25] = 500 g ai/ha, scale 0 to 100, 0 is no effect, 100 is complete control
[26] = 125 g ai/ha, scale 0 to 100 (0 no effect, 100 complete control)
[27] = 250 g ai/ha, scale of 0 to 100, 0 is no effect, 100 is complete control
[28] = 500 g ai/ha, visual rating after 12 to 14 days, scale 0 to 100 (0 no effect, 100 complete control)

CCNC(=O)c1cccc(NC(=O)c2nn(C(C)C)nc2CC)c1 [Compound 357]
Plant response rating (0 to 100 scale), Corn [1, 22]: 0 | Corn plant response rating [1, 23]: 0 | Plant response rating, Corn [1, 24]: 80 | Corn plant response rating [1, 25]: 20 | Plant response rating (0 to 100 scale), Foxtail, Giant [2, 22]: 20 | Foxtail, Giant plant response rating [2, 23]: 30 | Plant response rating, Foxtail, Giant [2, 24]: 100 | Foxtail, Giant plant response rating [2, 25]: 40 | Sedge, Umbrella plant response rating ([3]; 62 g ai/ha, scale 0 to 100): 40 | Sedge, Umbrella plant response rating [3, 26]: 85 | Sedge, Umbrella plant response rating [3, 27]: 90 | Plant response rating, Sedge, Umbrella [3, 28]: 95 | Plant response rating (0 to 100 scale), Velvetleaf [4, 22]: 0 | Velvetleaf plant response rating [4, 23]: 20 | Velvetleaf plant response rating [4, 25]: 20 | Plant response rating (0 to 100 scale), Crabgrass, Large [5, 22]: 70 | Crabgrass, Large plant response rating [5, 23]: 0 | Plant response rating, Crabgrass, Large [5, 24]: 100 | Crabgrass, Large plant response rating [5, 25]: 10 | Rice plant response rating ([6]; 62 g ai/ha, scale 0 to 100): 0 | Rice plant response rating [6, 26]: 0 | Rice plant response rating [6, 27]: 45 | Plant response rating, Rice [6, 28]: 70 | Plant response rating (0 to 100 scale), Pigweed [7, 22]: 100 | Pigweed plant response rating [7, 23]: 20 | Plant response rating, Pigweed [7, 24]: 100 | Pigweed plant response rating [7, 25]: 40 | Plant response rating (0 to 100 scale), Lambsquarters [8, 22]: 90 | Lambsquarters plant response rating [8, 23]: 30 | Plant response rating, Lambsquarters [8, 24]: 100 | Lambsquarters plant response rating [8, 25]: 60 | Rice plant response rating [9]: 70 | Wheat plant response rating [10, 23]: 0 | Wheat plant response rating [10, 25]: 0 | Plant response rating (0 to 100 scale), Morningglory [11, 22]: 10 | Morningglory plant response rating [11, 23]: 10 | Plant response rating, Morningglory [11, 24]: 70 | Morningglory plant response rating [11, 25]: 30 | Ducksalad plant response rating ([12]; 62 g ai/ha, scale 0 to 100): 30 | Ducksalad plant response rating [12, 26]: 30 | Ducksalad plant response rating [12, 27]: 45 | Plant response rating, Ducksalad [12, 28]: 95 | Plant response rating (0 to 100 scale), Cocklebur [13, 22]: 0 | Cocklebur plant response rating [13, 23]: 10 | Plant response rating, Cocklebur [13, 24]: 30 | Cocklebur plant response rating [13, 25]: 20 | Oat, Wild plant response rating [14, 23]: 0 | Oat, Wild plant response rating [14, 25]: 30 | Plant response rating (0 to 100 scale), Surinam Grass [15, 22]: 30 | Surinam Grass plant response rating [15, 23]: 10 | Plant response rating, Surinam Grass [15, 24]: 80 | Surinam Grass plant response rating [15, 25]: 20 | Plant response rating (0 to 100 scale), Barnyardgrass [16, 22]: 30 | Barnyardgrass plant response rating [16, 23]: 0 | Plant response rating, Barnyardgrass [16, 24]: 80 | Barnyardgrass plant response rating [16, 25]: 10 | Barnyardgrass plant response rating ([17]; 62 g ai/ha, scale 0 to 100 (0 no effect, 100 complete control)): 0 | Barnyardgrass plant response rating [17, 26]: 0 | Barnyardgrass plant response rating [17, 27]: 30 | Plant response rating, Barnyardgrass [17, 28]: 55 | Blackgrass plant response rating [18, 23]: 0 | Blackgrass plant response rating [18, 25]: 30 | Sedge, Umbrella plant response rating [19]: 80 | Ducksalad plant response rating [20]: 80 | Barnyardgrass plant response rating [21]: 70
